This is an account of results in paper PMC7459823, “Characterization of Five Novel Anti-MRSA Compounds Identified Using a Whole-Animal Caenorhabditis elegans/Galleria mellonella Sequential-Screening Approach” (Antibiotics, 2020).

Values after ≈ are worked out from the molar mass of the structure shown.

In assay [1] the test system is MRSA-MW2 infection of C. elegans. As to the kind of experiment: C. elegans–MRSA-MW2 high-throughput screen (Z-score, alive versus dead worms). The class given is in vivo, Caenorhabditis elegans. Particulars: screening concentration 2.86 µg/mL, hits Z > 2. From the text:
The five compounds: (4,4′,4″-(4-propyl-[1H]-pyrazole-1,3,5-triyl)trisphenol, PPT; (1S,2S)-2-[2-[[3-(1H-benzimidazol-2-yl)propyl]methylamino]ethyl]-6-fluoro-1,2,3,4-tetrahydro-1-(1-methylethyl)-2- naphthalenyl cyclopropanecarboxylate dihydrochloride, NNC; 4,5,6,7-tetrabromobenzotriazole, TBB; 3-[2-[2-chloro-4-[3-(2,6-dichlorophenyl)-5-(1-methylethyl)-4-isoxazolyl]methoxy]phenyl] ethenyl] benzoic acid, GW4064; and N-(cyclopropylmethoxy)-3,4,5-trifluoro-2-[(4-iodo-2-methylphenyl)amino] benzamide, PD198306) were purchased from Tocris Bioscience at the following levels of purity: PPT: >99.7%, NNC: >98%, TBB: >99%, GW4064: >97%, and PD198306: 98.8%. […] Hits were identified based on Z-scores. Z-scores are calculated from the ratio of alive versus dead worms after treatment with test compounds and represents the number of standard deviations (SD) the test compound differs from the mean using the formula Z = (x − μ)/σ; where x is the raw sample score, μ is the mean of the population and σ is the standard deviation of the population. Samples with Z > 2σ are considered hits.

Assay [2] has as its system MRSA MW2 infection of Galleria mellonella larvae. The assay is described as follows: G. mellonella–MRSA survival assay. The class given is in vivo. Particulars: larvae infected with MRSA MW2 5 × 10^5 CFU, compound 10 mg/kg 2 h after infection, monitored 120 h; untreated 1 day. As to the method:
Larvae were infected with MRSA MW2 (5 × 10^5 CFU) in the left rear proleg, and after two hours, the compounds were introduced separately at 10 mg/kg into the right rear proleg and larvae survival was monitored for 120 h.
Assays were performed as described previously. Briefly, sixteen randomly selected G. mellonella larvae (Vanderhorst, Inc., St. Mary’s, OH, USA) between 300–350 mg were used for each test group. MRSA-MW2 was grown in Tryptic Soy Broth (TSB), washed with phosphate buffered saline (PBS, pH = 7.4), and diluted to OD600 = 0.3 before inoculation into G. mellonella larvae. A 10-μL inoculum was injected into the last left proleg using a 10-μL Hamilton syringe. After 2 h, compounds were administered into the last right proleg and larvae were incubated at 37 °C. G.mellonella survival was monitored for 120 h, and death was confirmed when there was no response. Killing curves and differences in survival were analyzed by the Kaplan–Meier method using GraphPad Prism version 8 (GraphPad Software, La Jolla, CA, USA). Statistical analysis (Kruskal–Wallis test) was carried out using the same program.

The test system of assay [3] is clinical S. aureus isolate BF1. As to the kind of experiment: Broth microdilution MIC, clinical S. aureus isolate BF1. Type of assay: cell-based. The following applies: Staphylococcus aureus; BF1; read-out: MIC. The procedure:
(§1) In vitro antibacterial activities were determined using the broth microdilution method. Assays were performed as described in Clinical and Laboratory Standards Institute protocols in triplicate using cation-adjusted Muller–Hinton broth (Becton Dickinson and Company, Franklin Lakes, NJ, USA) in 96-well plates with a total assay volume of 100 µL. Two-fold serial dilutions of test compounds were prepared over the concentration range of 1–64 µg/mL. The bacterial concentration was adjusted to OD600 = 0.06. […] A 10 µL aliquot from each well in the MIC assays was plated onto Muller–Hinton agar (Becton Dickinson and Company, Franklin Lakes, NJ, USA) and incubated overnight at 37 °C. The lowest concentration of compound for which no growth was observed on agar plates was reported as the minimal bactericidal concentration (MBC).

Assay [4] has as its system clinical S. aureus isolate BF2. The assay is described as follows: Broth microdilution MIC, clinical S. aureus isolate BF2. Type of assay: cell-based. The following applies: Staphylococcus aureus; BF2; read-out: MIC. The procedure:
as §1
(In general: Broth dilution looks for growth in wells or tubes with falling amounts of substance.)

Assay [5] concerns clinical S. aureus isolate BF3. As to the kind of experiment: Broth microdilution MIC, clinical S. aureus isolate BF3. The following applies: Staphylococcus aureus; BF3; read-out: MIC. Type of assay: cell-based. The procedure: as §1
The test system of the next assay is Klebsiella pneumoniae. The assay is described as follows: Broth microdilution MIC, Klebsiella pneumoniae. The class given is cell-based. The following applies: read-out: MIC. As to the method: as §1
In a further assay the test system is Pseudomonas aeruginosa. As to the kind of experiment: Broth microdilution MIC, Pseudomonas aeruginosa. Type of assay: cell-based. Particulars: read-out: MIC. As to the method: as §1
Another assay concerns MRSA MW2. The assay is described as follows: Time-to-kill assay. Type of assay: cell-based, Staphylococcus aureus. The following applies: MRSA MW2, compounds at 64 µg/mL, 4 hr; criteria MBC/MIC and 3 log10 CFU decrease. An excerpt:
Time-to-kill assays were used to further probe bactericidal/bacteriostatic properties against MRSA MW2 (Figure 3). Antibacterial compounds are generally considered bactericidal, if the MBC is no more than four times higher than the MIC. Bactericidal activity is defined as greater than 3 log10 -fold decrease in colony forming units, which is equivalent to 99.9% killing of the inoculum. If the MBC is outside this range, compounds are bacteriostatic. According to these criteria, all five compounds were bacteriostatic.
Time-to-kill assays were performed as previously described. Briefly, overnight cultures of MRSA-MW2 were diluted in fresh Tryptic Soy Broth (TSB) to a density of 10^8 cells/mL and placed into 10 mL tubes (Becton Dickinson and Company, Franklin Lakes, NJ, USA). Test compounds dissolved in DMSO over the concentration range 4–64 µg/mL were added and the tubes incubated at 37 °C. At periodic intervals, aliquots from each tube were serially diluted with TSB and plated onto tryptic soy agar (TSA) (Becton Dickinson and Company, Franklin Lakes, NJ, USA). CFUs were enumerated after overnight incubation at 37 °C. Assays were carried out in triplicate.

The next assay relates to MRSA-MW2. The assay is described as follows: Checkerboard synergy assay (FIC index). Type of assay: cell-based, Staphylococcus aureus. The following applies: synergy FIC ≤ 0.5. As to the method:
The combination of two antibiotics with different modes of action can reduce bacterial resistance and sometimes even restore clinical efficacy of an antibiotic that has lost effectiveness. The five compounds were tested against MRSA-MW2 in the presence of five clinical antibiotics from different classes (i.e., polymyxin B, gentamycin, erythromycin, doxycycline, and oxacillin).
Antibacterial synergy for combinations of the compounds with each other and with clinical antibiotics (doxycycline, gentamicin, polymyxin-B, oxacillin, and erythromycin) was measured using checkerboard assays. In short, Cultures of MRSA-MW2 were adjusted to OD600 = 0.06 and one compound was arrayed horizontally and other vertically in 96 well plates. The assays were carried out in triplicate, exactly as described for the antibacterial susceptibility assays. The inhibitory effects of compound combinations were evaluated using the Fractional Inhibitory Concentration (FIC) index, derived from the formula:FIC index = FICA + FICB = [A]/MICA + [B]/MICB
MIC of substance A tested in combination /MIC of substance A tested alone + MIC of substance B tested in combination/MIC of substance B tested alone. Synergy is indicated when FIC ≤ 0.5, indifference when 0.5 ≤ FIC ≤ 4, and antagonism when FIC > 4. Experiments were performed in duplicate and report the average FIC index.

For `Cc1cc(I)ccc1Nc1c(C(=O)NOCC2CC2)cc(F)c(F)c1F` [PD198306, N-(Cyclopropylmethoxy)-3,4,5-trifluoro-2-[(4-iodo-2-methylphenyl)amino]-benzamide], in assay [1], the Z-Score was found to be 3.43. The molecule also displayed a median post-infection survival in [2] of 2 days. The minimum inhibitory concentration (MIC) (usually the lowest concentration that inhibits growth of the organism) in [3] is 2 µg/mL (≈ 4.2 µM); in assay [4] it was 2 µg/mL (≈ 4.2 µM); in assay [5] it was 2 µg/mL (≈ 4.2 µM); with Klebsiella pneumoniae it was greater than 64 µg/mL; in the assay with Pseudomonas aeruginosa, greater than 64 µg/mL. Besides, the bactericidal/bacteriostatic classification result with MRSA MW2 is “bacteriostatic”. Also, the “Fractional Inhibitory Concentration (FIC) Index” value in the assay with MRSA-MW2 (with Doxycycline) is reported as 2.0; in the assay on MRSA-MW2 (with Erythromycin), 0.5; with MRSA-MW2 (with Gentamycin), 0.625; in the assay on MRSA-MW2 (with Oxacillin), 0.75; in the assay with MRSA-MW2 (with Polymyxin B), 1.0.
